Experiments:
[1] = limiting fully ionized mobility, value = mobility × 10^9; cited from earlier work
[2] = Estimated effective mobilities in ITP zones of FIGS. 4a-b; details: % of −17.8×10^−9 m^2V^−1s^−1
Text: We used numerical codes to predict the composition, pH, and fluorescence intensity of each zone for assay design and theory validation. Transient and steady state problems can be simulated with programs such as Simul 5, or a MATLAB-based program developed in-house. For fast solution of most problems, however, we used a steady-state solver written in-house based on the RFQ method described by Beckers and Everaerts. This code adjusts ion mobility and pKa for ionic strength based on the Davies equation and Robinson-Stokes model, respectively. See Table 1 above for the limiting electrophoretic mobilities and pKas of example chemicals used in simulations.
Further details relating to FIGS. 4a-b are as follows. FIGS. 4a-b show detection of HEPES and MOPS with a counterionic (FIG. 4a) and overspeeding coionic (FIG. 4b) fluorescent non-focusing tracer. Top panes are ratios of zone intensities IA/IL, and bottom panes are corresponding images. The zones are, from left to right, TE (tricine), HEPES, MOPS, and LE (MES). The concentration of the tracer increases in high mobility zones. The mobility of the coionic tracer Alexa Fluor 488 (AF488) is close to that of MES, so it is especially sensitive in this region. […]. […] For the left plots, the LE contains 50 μM R6G. For the right plots, the TE contains 5 μM AF488. […].
As discussed in Theory, the sensitivity of counterspeeders tends to be approximately uniform for all analyte mobilities. In contrast, underspeeders and overspeeders offer the potential advantage of extreme sensitivity to analytes with mobilities approximately equal to that of the tracer. In FIGS. 4a-b, we estimate the effective mobility of the LE (MES) to be −17.8×10^−9 m^2V^−1s^−1, and the effective mobilities of MOPS, HEPES, and tricine to be respectively 58%, 41%, and 30% of that value. For the counterspeeder of FIG. 4a, the ratios of analyte-to-LE zone intensities are similar to the effective mobility ratios for MOPS, HEPES, and tricine (I/IL values of 0.69, 0.51, and 0.34, respectively). […]

effective mobility relative to that of the LE (MES) [2] [%]	Structure (SMILES)	fully-ionized Mobility · 10^9 [1]
–	Cl [Chloride]	(−1, 79.1) m^2V^−1s^−1
41	O=S(=O)(O)CCN1CCN(CCO)CC1 [HEPES, 2-[4-(2-hydroxyethyl)piperazin-1-yl]ethanesulfonic acid]	(−1, 21.8) m^2V^−1s^−1
58	O=S(=O)(O)CCCN1CCOCC1 [MOPS, 3-morpholinopropane-1-sulfonic acid]	–
–	NC(CO)(CO)CO [Tris, 2-Amino-2-hydroxymethyl-propane-1,3-diol]	(−1, 29.5) m^2V^−1s^−1
–	CC(=O)O [Acetic acid]	(−1, 42.4) m^2V^−1s^−1
30	O=C(O)CNC(CO)(CO)CO [Tricine, N-(2-Hydroxy-1,1-bis(hydroxymethyl)ethyl)glycine]	(−1, 26.6) m^2V^−1s^−1
–	[Ba+2].[OH-].[OH-] [Ba(OH)2]	(+2 ,66) m^2V^−1s^−1

— patent US8721858B2, “Non-focusing tracers for indirect detection in electrophoretic displacement techniques” (The Board of Trustees of the Leland Stanford Junior …, priority 2010, dated 2014)
